Several values for one entry are separate records, joined by “and”; a condition that tells them apart may be missing. Identical values can stand only once. Like-named read-outs stand apart in the source and are kept apart here.
Legend:
[1] = Plasma sildenafil levels in healthy volunteers; format: in vivo; conditions: human, po, 100 mg, 100 mg oral
Source text: Forty healthy volunteers were recruited from the general population in response to advertisements posted in the surrounding community. Subjects were screened by medical history, physical examination, and transthoracic echocardiogram. Individuals with heart disease, atherosclerosis, hypertension, diabetes mellitus, pulmonary hypertension, renal or hepatic disease, smoking, pregnancy, or under treatment with nitrates, adrenergic-blocking drugs, or medicines known to interfere with sildenafil pharmacokinetics were excluded. […] All subjects were instructed to fast for >6 hours prior to study. […] Intravenous dobutamine (5 μg/kg/min) was then administered for 5 minutes to achieve a stable response, and measurements repeated (D1). Dobutamine was discontinued, and 15 minutes provided to return to the baseline state. […] Data were again recorded for a second baseline (B2), and during a second dobutamine infusion (D2) using the identical protocol as for the first test. Plasma sildenafil and its metabolite […] measured in each subject by liquid chromatography and mass spectrometry (SFBC Analytical Labs, North Wales, Pa.).

myocardial cGMP = experiment: Myocardial cyclic nucleotide levels; format: in vivo, mouse
Source text: Hearts were washed in ice-cold PBS, homogenized in 6% trichloroacetic acid, centrifuged and extracted with water-saturated ether. The aqueous layer was transferred, vacuum dried, and the pellet resuspended in sodium acetate buffer for cAMP and cGMP enzyme immunoassay (Amersham Pharmacia Biotech, Buckinghamshire, UK).

calcineurin = experiment: Calcineurin expression in TAC hearts (Western blot); format: in vivo, mouse; conditions: 1 and 9 weeks of TAC
Protocol: Protein was prepared from snap-frozen heart tissue using extraction buffer as described previously^90. Antibodies included calcineurin (1:2000 dilution, BD Transduction Laboratories (San Diego, Calif.), GSK3β, Ser9-phospho-GSK313, Akt, Ser473-phospho-Akt, ERK, Thr202/Thr204-phospho-ERK (1:1000 dilution, Cell Signaling Technology, Beverly, Mass.). Primary antibody binding was visualized by horse radish peroxidase-conjugated secondary antibodies and enhanced chemiluminescence (Pierce, Rockford, Ill.).

[2] = test system: isolated adult murine myocytes; experiment: Isoproterenol-stimulated contraction of isolated adult cardiac myocytes; format: cell-based, mouse; conditions: sildenafil 100 nM
Protocol: Louis, Mo.) for 6-7 min. Ventricles were gently chopped, filtered (150μ mesh), centrifuged (500 RPM×1 min), and rinsed in Tyrode's solution with increasing calcium (final 1.8 mM Ca^2+). Cells were incubated with 5 μM Indo-1 AM (Molecular Probes), rinsed, and studied at 27° C. by field stimulation in an inverted fluorescence microscope (Diaphot 200; Nikon, Inc). Sarcomere length (IonOptix, MA) and whole cell calcium transients were measured.

PKG-1 = PKG-1 activity in isolated adult myocytes; format: cell-based, mouse; set-up: concentration or dose not given beside the values
Protocol: After 10 min, cells were lysed and PKG-1 activity determined.

MMP-2 and MMP-9 = experiment: Cardiac gelatinase zymography; format: in vivo, mouse; conditions: 3W TAC, co-treatment
Protocol: In Vitro gelatin lysis by MMP-2 and MMP-9 was assessed by zymography. Briefly, modified Laemmli buffer without mercaptoethanol was added to lysed tissue samples and loaded on 10% gelatin (Invitrogen Corp., San Diego, Calif.). After electrophoresis, gels were washed twice with renaturing buffer at room temperature followed by developing buffer (Invitrogen Corp., San Diego, Calif.), then stained with a commercially available Coomassie stain to visualize lytic bands (SIMPLYBLUe, Invitrogen Corp., San Diego, Calif.).

RhoA, ROCK1 and ROCK2 = experiment: RhoA and Rho kinase expression and activity in TAC hearts; format: in vivo, mouse; conditions: 3 weeks TAC
Protocol: RhoA activity assay was performed by immunoprecipitation using a commercially available immobilized antibody (SEIZE X IP, Pierce Biotechnology, IL). The antibody used was a rabbit polyclonal antibody raised against RboA (Upstate, NY [1:2500]) and subsequent commercial activity assay according to manufacturer's specification (Upstate Biotechnology, NY).
Protein lysates from whole myocardium and isolated cardiac myocytes were obtained using lysis buffer (Cell Signaling Technology, Beverly, Mass.) with mini-protease inhibitor (Roche, Ind.) and 5% Triton (Sigma Chemical (St. Louis, Mo.). Following 12,000 g centrifugation for 30 minutes, protein was quantified (Pierce Rockford, Ill.), NUPage LDS sample buffer added (Biorad, Hercules, Calif.), and lysates electrophoresed on NuPAGE 4-12% Bis-Tris polyacrylamide gels (Invitrogen, San Diego, Calif.). Membranes were incubated with rabbit polyclonal antibodies raised against ROCK1 or ROCK2 (Cell Signaling Technology, Beverly, Mass.) [1:3,000].

STAT3 = STAT3 phosphorylation in TAC hearts; format: in vivo, mouse
Protocol: Myocardial tissue extract was electrophoresed in SDS-New Page gel, and probed for both tyrosine phosphorylated (Tyr705) and total Stat3. In additional studies, rat neonatal myocytes were cultured, then exposed to interleukin 6 (IL-6, Cell Signaling, 100 ng/ml) for one hour. […] In other studies, cells were pre-transfected (Lipofectamine™, Invitrogen) with mixed oligonucleotide silencing RNAs for STAT3 (siRNA, SmarTTpool Stat3). Protein extracts were obtained from myocyte extracts after the 1 hour incubation period, and probed for phosphorylated and total protein levels of Stat1 (Tyr701) and Stat3 (Tyr705) (Cell Signaling Inc.). siRNA was transfected into neonatal myocytes.

[3] = inhibitor combined with isoproterenol

- concentration at 75 min ([1]; subjects excluded from analysis, read-out: plasma concentration, mean of four subjects with very low levels): 3.6 nM
- concentration at 75 min ([1]; subjects excluded from analysis, read-out: plasma concentrations, each of four subjects with very low levels): < 6 nM
- concentration at 75 min ([1]; Free plasma sildenafil concentration, 75 minutes after dose): 44 ± 29 nM
- gelatinase activity (gel lysis) (MMP-2 and MMP-9): largely inhibited
SMILES: CCCc1nn(C)c2c(=O)[nH]c(-c3cc(S(=O)(=O)N4CCN(C)CC4)ccc3OCC)nc12 [sildenafil]
- total myocardial cGMP (myocardial cGMP; TAC hearts, chronic co-treatment): declined
- myocardial cAMP levels (myocardial cGMP; basal or TAC conditions): did not alter myocardial cAMP levels
- total myocardial cGMP (myocardial cGMP; sham controls, chronic treatment): did not change
- calcineurin protein expression (calcineurin): significantly reduced
- isoproterenol-enhanced contraction of isolated cardiac muscle cells [2]: blunted
- enhancement of PKG-1 activity (PKG-1; basal conditions, inhibitor alone): ~10%
- rise in PKG-1 activity (PKG-1; [3]): 50% and 70%
- rise in PKG-1 activity over ISO alone (PKG-1; [3]): 30%
- RhoA and Rho-kinase expression and activity (RhoA, ROCK1 and ROCK2): inhibits RhoA, Rho-Kinase1 (ROCK1) and Rho-Kinase2 protein expression and activity
- STAT3 activation (phosphorylation) (STAT3): inhibits activation of STAT3

— patent publication US8299083B2, “PDE5 inhibitor compositions and methods for treating cardiac indications” (The Johns Hopkins University, priority 2004, dated 2012)
